The results in this text go back to patent US20250345384A1, “STABLE CYCLODEXTRIN FREE CARFILZOMIB FORMULATION” (AMGEN INC., priority 2020, published 2025).

Values after ≈ are worked out from the molar mass of the structure shown.

One data set in a line: physchem. Conditions: pH 7, water.
The nature of data set [1]: Visual comparison of carfilzomib in water, cyclodextrin and cyclodextrin-free formulations (FIG. 2). Format: physicochemical. The following applies: CFZ-API concentration of 2 mg/mL. From the text: Carfilzomib (CFZ) is a proteasomal inhibitor and active ingredient of KYPROLIS®, a lyophilized drug product which is for the treatment of multiple myeloma. The current commercial formulation of KYPROLIS contains CAPTISOL®, which is a cyclodextrin used to help solubility the CFZ-API. The present invention provides a stable, cyclodextrin-free formulations for CFZ-API in an aqueous solution which is suitable for injection. FIG. 2 illustrates (a) insoluble CFZ-API in water (b) current commercial KYPROLIS formulation containing CAPTISOL (middle vial); and (c) the cyclodextrin free chlorobutanol formulation of the invention (right vial). Each sample contains CFZ-API concentration of 2 mg/mL.

For the molecule `CC(C)C[C@H](NC(=O)[C@H](CCc1ccccc1)NC(=O)CN1CCOCC1)C(=O)N[C@@H](Cc1ccccc1)C(=O)N[C@@H](CC(C)C)C(=O)[C@@]1(C)CO1` [CFZ-API, Carfilzomib], in the data set “physchem”, the concentration in solution (solubility) was 2 µg/mL (≈ 2.78 µM). Further, in data set [1], the “Visual solubility in water” value is reported as “insoluble”.

For orientation: solubility means the dissolved amount per volume that the medium holds. Low values mean little dissolved substance, high ones much dissolved substance.
